≈ marks a conversion by molar mass, not a printed value. Entries after “also recorded” stand apart in the source; their conditions may differ.
What was measured:
Z. tritici cells [1] = assay type: cell-based, Zymoseptoria tritici
[2] = system: C109 human skin fibroblasts; experiment: Mitochondrial membrane potential in human skin fibroblasts
Z. tritici mitochondria [3] = assay type: cell-based, Zymoseptoria tritici; conditions: for mitochondrial depolarisation / inhibition of mitochondrial respiration: Z. tritici
[4] = system: C109 human skin fibroblasts; experiment: Mitochondrial organization in human skin fibroblasts; assay type: cell-based
Protocol: The effects on mitochondria may account for the fungal specificity of C12-G+. To test this, mammalian skin C109 fibroblasts were treated with C12-G+ and monitored for its effect on mitochondrial shape and membrane potential.
Low toxicity to humans and in the environment is an important requirement for fungicides. The toxicity of C12-TPP+, C18-TMA+ and C18-DMS+ was therefore tested on C109 human skin fibroblasts. Mitochondrial organization and mitochondrial membrane potential were monitored after incubating with various concentrations of the compounds.

Z. tritici mitochondria [5] = assay type: cell-based, Zymoseptoria tritici
rice leaves [6] = conditions: in vivo
cellular respiration = experiment: Cellular oxygen consumption in cell suspensions; assay type: cell-based, U. maydis
[7] = system: U. maydis plasma membrane; experiment: Plasma membrane integrity with GFP-Sso1 marker (patches, photo-bleaching recovery); assay type: cell-based, Ustilago maydis
Z. tritici [8] = experiment: Growth inhibition on agar plates supplemented with compound; assay type: cell-based, Zymoseptoria tritici
U. maydis [9] = experiment: Live/dead staining in liquid culture; assay type: cell-based, Ustilago maydis
M. oryzae (strain Guy11) = assay type: in vivo, Magnaporthe oryzae on rice; conditions: rice; for protection at high concentrations: M. oryzae, high concentrations (75 and 100 μg/ml); for disease symptom development: sprayed 24 h before M. oryzae, 4 days, concentration-dependent
U. maydis mitochondria = experiment: Mitochondrial depolarisation, TMRM staining; assay type: cell-based, Ustilago maydis; conditions: low amounts
Daphnia magna [10] = experiment: Daphnia magna 30 minute treatment, TMRM mitochondrial potential; assay type: in vivo; conditions: 1 μg/ml for 30 minutes
Protocol: In addition, the toxicity of C12-G+, C18-TMA+ and C18-DMS+ on the water flea Daphnia magna was investigated. This freshwater crustacean is well-established as a reporter organism in toxicity tests. Firstly, Daphnia magna was treated with 1 μg/ml of C12-G+, C18-TMA+ and C18-DMS+ for 30 minutes, followed by visualization of the mitochondrial potential by TMRM.

rice leaves [11] = experiment: Early plant defence response, diaminobenzidine (DAB) staining of H2O2; assay type: in vivo; conditions: 150 μg/ml SACC (salicylic acid 15 mM), 6 h
Z. tritici cells [12] = experiment: Programmed cell death, CaspACE FITC-VAD-FMK with propidium iodide co-staining; assay type: cell-based, Zymoseptoria tritici; conditions: 24 h treatment
wheat leaves = conditions: in vivo
[13] = system: Z. tritici plasma membrane; assay type: cell-based, Zymoseptoria tritici
U. maydis [14] = experiment: Growth inhibition on agar plates supplemented with compound; assay type: cell-based, Ustilago maydis
Daphnia magna [15] = experiment: Daphnia magna 24 h toxicity (motility, escape response as indicator of mortality); assay type: in vivo
Protocol: Next, water fleas were treated for 24 h with various concentrations of all three SACCs and their motility behaviour and “escape response” monitored as an indicator of mortality. […] Higher amounts of both C18 SACCs eventually killed Daphnia magna, with C18-TMA+ being 1.8-times more toxic than C18-DMS+.

Z. tritici [16] = experiment: Plasma membrane potential, DiBAC4(3) staining; assay type: cell-based, Zymoseptoria tritici; conditions: high concentrations
Protocol: (§1) Drug-induced leakage of ions from the cell was then determined by visualizing alterations of the membrane potential in C12-G+-treated cells, using the voltage-sensitive fluorescent probe bis-(1,3-dibutylbarbituric acid) trimethine oxonol, DiBAC4(3), which only stains depolarised cells. […] Therefore, the effect on the plasma membrane is most likely not the primary MoA of C12-G+ in fungi.

[17] = system: Z. tritici (strain IPO323); parameters: species or system Zymoseptoria tritici on wheat; conditions: in vivo
U. maydis [18] = experiment: Plasma membrane potential, DiBAC4(3) staining; assay type: cell-based, Ustilago maydis; conditions: high concentrations
Protocol: as §1

Z. tritici [19] = assay type: cell-based, Zymoseptoria tritici
Candida glabrata = assay type: cell-based
C. albicans [20] = assay type: cell-based, Candida albicans
U. maydis [21] = assay type: cell-based, Ustilago maydis
Z. tritici cells [22] = experiment: Programmed cell death, Annexin-V-fluorescein staining; assay type: cell-based, Zymoseptoria tritici
[23] = system: Candida albicans mitochondria; assay type: cell-based
C. glabrata = assay type: cell-based, Candida glabrata
[24] = system: Candida glabrata mitochondria; assay type: cell-based
C. albicans [25] = assay type: cell-based, Candida albicans; remark: listed apart in the source

Compound: antimycin A
- mROS levels (Z. tritici cells [1]): increase of mROS

Compound: CCCCCCCCCCCC[P+](c1ccccc1)(c1ccccc1)c1ccccc1 [C12-TPP+, dodecyltriphenylphosphonium]
- EC50, human mitochondrial respiration ([2]; C109 fibroblasts): 0.355 µg/mL
- mitochondrial depolarisation / inhibition of mitochondrial respiration (Z. tritici mitochondria [3]): showed significant inhibition of mitochondrial respiration
- EC, human mitochondrial organization ([4]; C109 fibroblasts): 5.62 µg/mL
- effect on human mitochondrial organization ([4]; C109 fibroblasts, various concentrations): little effect on human mitochondrial organization
- EC50 on Z. tritici (mitochondrial fragmentation) (Z. tritici mitochondria [5]): 6.63 µg/mL

Compound: CCCCCCCCCCCCNC(=N)N [C12-G+, dodecylguanidinium]
- chlorosis or necrosis (phytotoxicity) (rice leaves [6]): none of the SACCs induced chlorosis or necrosis
- effect on mitochondrial membrane potential ([2]; C109 fibroblasts): modest effect
- cellular oxygen consumption (cellular respiration): inhibits cellular respiration
- formation of GFP-Sso1 patches at the cell periphery ([7]; high concentrations): induced the formation of GFP-Sso1
- lateral mobility of GFP-Sso1 ([7]; ≥10 μg/ml): significantly reduced the mobility of GFP-Sso1
- Z. tritici more sensitive than U. maydis (growth inhibition) (Z. tritici [8]): ~4 times
- EC50, concentration at 50% inhibition of growth (Z. tritici [8]; Z. tritici): 0.6 µg/mL
- Z. tritici more sensitive than U. maydis (mitochondrial membrane potential) (Z. tritici mitochondria [3]): ~4 times
- cell viability (U. maydis [9]; 30-45 minutes incubation, up to 50 μg/ml): most cells were still alive
- killing (U. maydis [9]; after 1 h at 100 μg/ml): ~15%
- protection at high concentrations (M. oryzae (strain Guy11)): does not fully suppress; also recorded: did not fully suppress infection
- disease symptom development (M. oryzae (strain Guy11)): Symptom development was inhibited
- mitochondrial depolarisation (TMRM) (U. maydis mitochondria): depolarised mitochondria
- mitochondrial potential (TMRM) in Daphnia magna (Daphnia magna [10]): lost most signal
- motility of Daphnia magna (Daphnia magna [10]): did not affect the motility
- peroxide production / DAB reaction (plant defence) (rice leaves [11]): slight peroxide production
- effect on mitochondrial organization ([4]; beyond 20 μg/ml): caused organelle fragmentation and swollen cristae
- effect on mitochondrial organization ([4]; concentrations up to 20 μg/ml): little effect on mitochondrial organization
- early apoptotic cells (CaspACE FITC-VAD-FMK positive, propidium iodide negative) (Z. tritici cells [12]): Only a few apoptotic cells
- EC50 on Z. tritici (mitochondrial fragmentation) (Z. tritici mitochondria [5]): 6.63 µg/mL (≈ 29.2 µM)
- chlorosis or necrosis (phytotoxicity) (wheat leaves): none of the SACCs induced chlorosis or necrosis
- EC50, effect on fungal plasma membrane ([13]; Z. tritici): 20 to 50 µg/mL
- lateral mobility of GFP-Sso1 ([13]; Z. tritici): this effect was not observed
- Z. tritici less sensitive than U. maydis (GFP-Sso1 patches) ([13]; at 50 μg/ml): ~2 times
- formation of GFP-Sso1 patches at the cell periphery ([13]; high concentrations, Z. tritici): induced the formation of GFP-Sso1
- antimycin A-induced mROS in the presence of compound (Z. tritici cells [1]): significantly reduced
- mROS levels (Z. tritici cells [1]): decreased mROS concentrations; also recorded: significantly reduced mROS
- EC50, concentration at 50% inhibition of growth (U. maydis [14]): 2.3 µg/mL
- concentration that killed all Daphnia magna (Daphnia magna [15]): ~1 µg/mL
- number of depolarised cells (DiBAC4(3)) (Z. tritici [16]): had only little effect
- disease symptom development [17]: Symptom development was inhibited
- protection at high concentrations [17]: does not fully suppress; also recorded: did not fully suppress infection
- number of depolarised cells (DiBAC4(3)) (U. maydis [18]): increased the number of depolarised cells
- cell viability (Z. tritici [19]; 30-45 minutes incubation, up to 100 μg/ml): most cells were still alive
- cells killed (Z. tritici [19]; after 1 h at 100 μg/ml): > 80%

Compound: C=C(C)[C@H]1Cc2c(ccc3c2O[C@@H]2COc4cc(OC)c(OC)cc4[C@@H]2C3=O)O1 [rotenone]
- mROS levels (Z. tritici cells [1]): decreased mROS levels
- more effective in decreasing mROS than C12-G+ and C18-TMA+ (Z. tritici cells [1]): 3-4 times

Compound: O=C(O)c1ccccc1O [salicylic acid]
- peroxide production / DAB reaction (plant defence) (rice leaves [11]): brown colouring

Compound: CCCCCCCCCCCC[S+](C)C [C12-DMS+, dodecyldimethylsulfonium]
- EC50 on Z. tritici (mitochondrial fragmentation) (Z. tritici mitochondria [5]): 7.39 µg/mL
- mROS levels (Z. tritici cells [1]): did not increase mROS levels

Compound: CCCCCCCCCCCC[N+](CC)(CC)CC [C12-TEA+, dodecyltriethylammonium]
- EC50 on Z. tritici (mitochondrial fragmentation) (Z. tritici mitochondria [5]): 2.38 µg/mL

Compound: CCCCCCCCCCCC[N+](C)(C)C [C12-TMA+, dodecyltrimethylammonium]
- EC50 on Z. tritici (mitochondrial fragmentation) (Z. tritici mitochondria [5]): 3.85 µg/mL

Compound: octadecyldimethylsulfonium [C18-DMS+]
- chlorosis or necrosis (phytotoxicity) (rice leaves [6]): none of the SACCs induced chlorosis or necrosis
- higher specificity for fungi than for humans (inhibition of mitochondrial respiration) ([2]; Z. tritici vs human cells): ~53 times
- killing (LIVE/DEAD staining) (Candida glabrata): efficiently killed
- killing (LIVE/DEAD staining) (C. albicans [20]): efficiently killed
- relative toxicity in C. albicans (C. albicans [20]): most toxic
- mitochondrial depolarisation / inhibition of mitochondrial respiration (Z. tritici mitochondria [3]): showed significant inhibition of mitochondrial respiration
- mROS levels (U. maydis [21]): significantly induced
- protection at high concentrations (M. oryzae (strain Guy11)): almost abolished symptom developments
- disease symptom development (M. oryzae (strain Guy11)): Symptom development was inhibited
- mitochondrial potential (TMRM) in Daphnia magna (Daphnia magna [10]): little or no effect on mitochondrial potential
- motility of Daphnia magna (Daphnia magna [10]): did not affect the motility
- peroxide production / DAB reaction (plant defence) (rice leaves [11]): much stronger DAB reaction
- Annexin-V-fluorescein membrane-associated fluorescence in apoptotic cells (Z. tritici cells [22]): only found in C18-DMS+-treated cells
- human mitochondria less sensitive (mitochondrial morphology) ([4]; printed as compared to C12-G+): ~29 times
- early apoptotic cells (CaspACE FITC-VAD-FMK positive, propidium iodide negative) (Z. tritici cells [12]): significant increase in early apoptotic cells
- mitochondrial potential [23]: reduce the mitochondrial potential
- EC50 on Z. tritici (mitochondrial fragmentation) (Z. tritici mitochondria [5]): 1.72 µg/mL
- chlorosis or necrosis (phytotoxicity) (wheat leaves): none of the SACCs induced chlorosis or necrosis
- mROS levels (Z. tritici cells [1]): significantly induced; also recorded: induced mROS production further
- mROS levels with complex I inhibitor rotenone (Z. tritici cells [1]): did not increase mROS levels
- effect on Daphnia magna (Daphnia magna [15]; at ~1 μg/ml): little effect at this concentration
- disease symptom development [17]: Symptom development was inhibited
- protection at high concentrations [17]: almost abolished symptom developments
- mROS levels (C. glabrata): significantly induced
- killing (LIVE/DEAD staining) (Z. tritici [19]; 12-14 h exposure, 10 μg/ml): efficiently killed
- mitochondrial potential [24]: reduce the mitochondrial potential
- mROS levels (C. albicans [25]): significantly induced

From US12635689B2, “Antifungal compositions” (priority 2019, dated 2026)
